# Reference: PMC11822212, “High-throughput screening identifies Aurora kinase B as a critical therapeutic target for Merkel cell carcinoma” (Nature Communications, 2025)
# Values joined by “and” are separate entries in the source; they are usually repeats but may differ in a detail not shown here. Equal values may be shown once. Read-outs that look alike come from different tables or passages of the source.
# Assays:
# [1] = test system: six MCC cell lines and four control cell lines; experiment: qHTS cell viability, all 10 cell lines screened; assay type: cell-based
# MCC26 cells (VN-MCC) = experiment: qHTS cell viability (CellTiter-Glo, 72 h; primary and follow-up small molecule screen); assay type: cell-based, human
# [2] = test system: VP-MCC cell lines (WAGA, MKL-1, MKL-2); experiment: qHTS cell viability, VP-MCC cell lines as a group (mean AUC, VP.MCC.avg); assay type: cell-based, human
# WAGA cells (VP-MCC) = experiment: qHTS cell viability (CellTiter-Glo, 72 h; primary and follow-up small molecule screen); assay type: cell-based, human
# MCC13 cells (VN-MCC) = experiment: as above; assay type: cell-based, human
# HACAT cells = experiment: qHTS cell viability (CellTiter-Glo, 72 h; primary screen), control cell line; assay type: cell-based, human
# HEK293T cells = experiment: as above; assay type: cell-based, human
# UISO cells (VN-MCC) = experiment: qHTS cell viability (CellTiter-Glo, 72 h; primary and follow-up small molecule screen); assay type: cell-based, human
# NIH-3T3 cells = experiment: qHTS cell viability (CellTiter-Glo, 72 h; primary screen), control cell line; assay type: cell-based, mouse
# [3] = test system: control cell lines (HACAT, HEK293T, CRL-7250, NIH-3T3); experiment: qHTS cell viability, control cell lines as a group (mean AUC, Control.avg); assay type: cell-based
# MKL-2 cells (VP-MCC) = experiment: qHTS cell viability (CellTiter-Glo, 72 h; primary and follow-up small molecule screen); assay type: cell-based, human
# MKL-1 cells (VP-MCC) = experiment: as above; assay type: cell-based, human
# CRL-7250 cells = experiment: qHTS cell viability (CellTiter-Glo, 72 h; primary screen), control cell line; assay type: cell-based
# [4] = test system: MCC cell lines (WAGA, MKL-1, MKL-2, MCC13, MCC26, UISO); experiment: qHTS cell viability, all six MCC cell lines as a group (mean AUC, MCC.avg); assay type: cell-based, human
# [5] = test system: VN-MCC cell lines (MCC13, MCC26, UISO); experiment: qHTS cell viability, VN-MCC cell lines as a group (mean AUC, VN.MCC.avg); assay type: cell-based, human
# [6] = MIPE library, 11-point DRC, sheet S2E
# [7] = MIPE library, 11-point DRC, control cell line, sheet S2E
smiles,measurement,setting,value
COc1ccc(C(=O)CC(=O)c2ccc(C(C)(C)C)cc2)cc1,Control-MCC,"[1]; MIPE library, Control AUC minus MCC AUC (therapeutic window), sheet S2E",65.7381
same,MCC26_AUC,MCC26 cells (VN-MCC); [6],485.026
same,MCC26_AUC,"MCC26 cells (VN-MCC); area under the dose-response curve, MCC26 cells, AUC<450 = reduced viability",481.864
same,Control-VP-MCC,"[2]; MIPE library, Control AUC minus VP-MCC AUC (therapeutic window), sheet S2E",140.718
same,VP-MCC_Avg_AUC,"[2]; MIPE library, mean AUC of VP-MCC cell lines, sheet S2E",319.984
same,WAGA_AUC,WAGA cells (VP-MCC); [6],305.979
same,WAGA_AUC,"WAGA cells (VP-MCC); area under the dose-response curve, WAGA cells, AUC<450 = reduced viability",381.481
same,MCC13_AUC,MCC13 cells (VN-MCC); [6],495.434
same,MCC13_AUC,"MCC13 cells (VN-MCC); area under the dose-response curve, MCC13 cells, AUC<450 = reduced viability",482.294
same,HACAT_AUC,HACAT cells; [7],476.58
same,HACAT_AUC,"HACAT cells; area under the dose-response curve, HACAT control cells, AUC<450 = reduced viability",467.786
same,HEK293T_AUC,HEK293T cells; [7],472.366
same,HEK293T_AUC,"HEK293T cells; area under the dose-response curve, HEK293T control cells, AUC<450 = reduced viability",465.048
same,UISO_AUC,UISO cells (VN-MCC); [6],429.371
same,UISO_AUC,"UISO cells (VN-MCC); area under the dose-response curve, UISO cells, AUC<450 = reduced viability",482.124
same,NIH3T3_AUC,NIH-3T3 cells; [7],477.589
same,NIH3T3_AUC,"NIH-3T3 cells; area under the dose-response curve, NIH3T3 control cells, AUC<450 = reduced viability",482.946
same,Control_Avg_AUC,"[3]; MIPE library, mean AUC of control cell lines, sheet S2E",460.702
same,MKL2_AUC,MKL-2 cells (VP-MCC); [6],314.76
same,MKL2_AUC,"MKL-2 cells (VP-MCC); area under the dose-response curve, MKL-2 cells, AUC<450 = reduced viability",386.921
same,MKL1_AUC,MKL-1 cells (VP-MCC); [6],339.212
same,MKL1_AUC,"MKL-1 cells (VP-MCC); area under the dose-response curve, MKL-1 cells, AUC<450 = reduced viability",411.648
same,CRL7250_AUC,CRL-7250 cells; [7],416.272
same,CRL7250_AUC,"CRL-7250 cells; area under the dose-response curve, CRL7250 control cells, AUC<450 = reduced viability",453.419
same,MCC_Avg_AUC,"[4]; MIPE library, mean AUC of six MCC cell lines, sheet S2E",394.964
same,Control-VN-MCC,"[5]; MIPE library, Control AUC minus VN-MCC AUC (therapeutic window), sheet S2E",-9.242
same,VN-MCC_Avg_AUC,"[5]; MIPE library, mean AUC of VN-MCC cell lines, sheet S2E",469.944
CC[C@H]1C[C@@H]2C[C@H]3c4[nH]c5ccc(OC)cc5c4CCN(C2)[C@@H]13.Cl [Ibogaine hydrochloride],Control-MCC,[1],51.6972
same,MCC26_AUC,MCC26 cells (VN-MCC),419.663
same,Control-VP-MCC,[2],48.777
same,VP-MCC_Avg_AUC,[2],430.539
same,WAGA_AUC,WAGA cells (VP-MCC),409.341
same,MCC13_AUC,MCC13 cells (VN-MCC),435.55
same,HACAT_AUC,HACAT cells,487.75
same,HEK293T_AUC,HEK293T cells,455.404
same,UISO_AUC,UISO cells (VN-MCC),418.883
same,NIH3T3_AUC,NIH-3T3 cells,484.099
same,Control_Avg_AUC,[3],479.316
same,MKL2_AUC,MKL-2 cells (VP-MCC),442.315
same,MKL1_AUC,MKL-1 cells (VP-MCC),439.962
same,CRL7250_AUC,CRL-7250 cells,490.013
same,MCC_Avg_AUC,[4],427.619
same,Control-VN-MCC,[5],54.6174
same,VN-MCC_Avg_AUC,[5],424.699
CC(O)C(=O)O.CCOc1ccc2nc3cc(N)ccc3c(N)c2c1.O [Ethacridine lactate hydrate],Control-MCC,[1],43.0859
same,MCC26_AUC,MCC26 cells (VN-MCC),472.196
same,Control-VP-MCC,[2],76.9894
same,VP-MCC_Avg_AUC,[2],361.054
same,WAGA_AUC,WAGA cells (VP-MCC),335.85
same,MCC13_AUC,MCC13 cells (VN-MCC),439.497
same,HACAT_AUC,HACAT cells,492.059
same,HEK293T_AUC,HEK293T cells,374.537
same,UISO_AUC,UISO cells (VN-MCC),374.889
same,NIH3T3_AUC,NIH-3T3 cells,456.142
same,Control_Avg_AUC,[3],438.043
same,MKL2_AUC,MKL-2 cells (VP-MCC),356.151
same,MKL1_AUC,MKL-1 cells (VP-MCC),391.16
same,CRL7250_AUC,CRL-7250 cells,429.434
same,MCC_Avg_AUC,[4],394.957
same,Control-VN-MCC,[5],9.1824
same,VN-MCC_Avg_AUC,[5],428.861
CC(=O)OC1(c2ccccc2)CCN(CCc2ccccc2)CC1,Control-MCC,[1],68.5641
same,MCC26_AUC,MCC26 cells (VN-MCC),420.097
same,Control-VP-MCC,[2],82.3602
same,VP-MCC_Avg_AUC,[2],382.197
same,WAGA_AUC,WAGA cells (VP-MCC),388.929
same,MCC13_AUC,MCC13 cells (VN-MCC),419.397
same,HACAT_AUC,HACAT cells,477.567
same,HEK293T_AUC,HEK293T cells,449.554
same,UISO_AUC,UISO cells (VN-MCC),389.875
same,NIH3T3_AUC,NIH-3T3 cells,473.448
same,Control_Avg_AUC,[3],464.558
same,MKL2_AUC,MKL-2 cells (VP-MCC),382.375
same,MKL1_AUC,MKL-1 cells (VP-MCC),375.288
same,CRL7250_AUC,CRL-7250 cells,457.662
same,MCC_Avg_AUC,[4],395.993 and 395.994
same,Control-VN-MCC,[5],54.768
same,VN-MCC_Avg_AUC,[5],409.79
